Among the data in ChEMBL document CHEMBL3991601, “The target landscape of clinical kinase drugs” (Science, 2017) are Kd values, retold here.

Experiment [1] deals with Serine/threonine-protein kinase PLK1 (Homo sapiens, UniProt P53350).
For another experiment, the target named is T1, UMP-CMP kinase (Homo sapiens, UniProt P30085).
T1 sequence (P30085 whole entry): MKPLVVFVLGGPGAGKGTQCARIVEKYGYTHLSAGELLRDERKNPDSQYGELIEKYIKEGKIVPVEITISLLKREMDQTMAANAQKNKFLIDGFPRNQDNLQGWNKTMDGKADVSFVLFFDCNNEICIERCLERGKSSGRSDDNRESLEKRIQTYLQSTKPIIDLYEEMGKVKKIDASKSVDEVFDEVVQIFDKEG

For experiment [2], the target named is Dual specificity protein kinase CLK3 (Homo sapiens, UniProt P49761). The experiment is classed as subcellular, K-562, COLO 205, SK-N-BE(2) and MV-4-11, Cell lysate. The following applies: read-out: Kd apparent.
Dual specificity protein kinase CLK3, sequence (P49761 whole entry): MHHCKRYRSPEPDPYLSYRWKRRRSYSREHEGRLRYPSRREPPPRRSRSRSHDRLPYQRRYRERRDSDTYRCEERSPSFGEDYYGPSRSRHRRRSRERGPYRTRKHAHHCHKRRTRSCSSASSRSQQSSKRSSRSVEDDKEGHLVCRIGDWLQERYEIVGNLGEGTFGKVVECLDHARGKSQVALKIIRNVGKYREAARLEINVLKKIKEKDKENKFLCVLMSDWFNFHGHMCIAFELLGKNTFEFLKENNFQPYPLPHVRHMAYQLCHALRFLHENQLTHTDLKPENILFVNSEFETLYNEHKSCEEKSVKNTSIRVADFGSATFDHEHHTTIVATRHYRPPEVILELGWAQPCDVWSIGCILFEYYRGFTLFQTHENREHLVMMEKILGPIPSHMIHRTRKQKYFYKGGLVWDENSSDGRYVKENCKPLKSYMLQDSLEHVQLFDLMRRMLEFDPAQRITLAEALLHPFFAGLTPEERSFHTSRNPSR
The target in experiment [3] is T2, Tyrosine-protein kinase Mer (Homo sapiens, UniProt Q12866).
T2 sequence (Q12866 whole entry): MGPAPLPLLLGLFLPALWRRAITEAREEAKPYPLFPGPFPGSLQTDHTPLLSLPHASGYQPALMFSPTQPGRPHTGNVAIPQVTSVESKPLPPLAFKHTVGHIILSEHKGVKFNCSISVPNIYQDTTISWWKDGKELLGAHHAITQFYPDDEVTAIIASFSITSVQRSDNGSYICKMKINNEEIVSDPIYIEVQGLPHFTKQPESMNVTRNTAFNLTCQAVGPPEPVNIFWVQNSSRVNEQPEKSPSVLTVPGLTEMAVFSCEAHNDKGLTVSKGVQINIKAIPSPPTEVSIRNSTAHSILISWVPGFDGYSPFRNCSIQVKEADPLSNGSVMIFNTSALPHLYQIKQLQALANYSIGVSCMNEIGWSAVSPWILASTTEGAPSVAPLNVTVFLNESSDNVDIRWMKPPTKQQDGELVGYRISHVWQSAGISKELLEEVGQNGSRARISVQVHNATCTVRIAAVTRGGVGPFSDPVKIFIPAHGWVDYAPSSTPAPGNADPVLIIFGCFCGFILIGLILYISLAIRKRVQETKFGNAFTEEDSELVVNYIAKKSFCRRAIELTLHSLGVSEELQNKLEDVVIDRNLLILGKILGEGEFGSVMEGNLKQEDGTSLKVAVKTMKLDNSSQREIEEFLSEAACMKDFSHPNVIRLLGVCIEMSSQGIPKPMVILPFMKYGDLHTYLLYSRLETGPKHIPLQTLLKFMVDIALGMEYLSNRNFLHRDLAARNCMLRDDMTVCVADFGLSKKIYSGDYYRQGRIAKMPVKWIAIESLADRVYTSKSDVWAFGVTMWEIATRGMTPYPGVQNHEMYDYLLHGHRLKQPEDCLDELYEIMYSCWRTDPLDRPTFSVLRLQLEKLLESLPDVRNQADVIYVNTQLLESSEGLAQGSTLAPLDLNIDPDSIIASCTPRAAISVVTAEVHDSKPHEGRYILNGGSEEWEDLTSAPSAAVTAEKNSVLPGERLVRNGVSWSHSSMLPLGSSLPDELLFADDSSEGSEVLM

Experiment [4] has as its target Dual specificity testis-specific protein kinase 2 (Homo sapiens, UniProt Q96S53).
Experiment [5] concerns the target Uncharacterized aarF domain-containing protein kinase 5 (Homo sapiens, UniProt Q3MIX3).
The target in another experiment is Misshapen-like kinase 1 (Homo sapiens, UniProt Q8N4C8).
Misshapen-like kinase 1, sequence (Q8N4C8 whole entry): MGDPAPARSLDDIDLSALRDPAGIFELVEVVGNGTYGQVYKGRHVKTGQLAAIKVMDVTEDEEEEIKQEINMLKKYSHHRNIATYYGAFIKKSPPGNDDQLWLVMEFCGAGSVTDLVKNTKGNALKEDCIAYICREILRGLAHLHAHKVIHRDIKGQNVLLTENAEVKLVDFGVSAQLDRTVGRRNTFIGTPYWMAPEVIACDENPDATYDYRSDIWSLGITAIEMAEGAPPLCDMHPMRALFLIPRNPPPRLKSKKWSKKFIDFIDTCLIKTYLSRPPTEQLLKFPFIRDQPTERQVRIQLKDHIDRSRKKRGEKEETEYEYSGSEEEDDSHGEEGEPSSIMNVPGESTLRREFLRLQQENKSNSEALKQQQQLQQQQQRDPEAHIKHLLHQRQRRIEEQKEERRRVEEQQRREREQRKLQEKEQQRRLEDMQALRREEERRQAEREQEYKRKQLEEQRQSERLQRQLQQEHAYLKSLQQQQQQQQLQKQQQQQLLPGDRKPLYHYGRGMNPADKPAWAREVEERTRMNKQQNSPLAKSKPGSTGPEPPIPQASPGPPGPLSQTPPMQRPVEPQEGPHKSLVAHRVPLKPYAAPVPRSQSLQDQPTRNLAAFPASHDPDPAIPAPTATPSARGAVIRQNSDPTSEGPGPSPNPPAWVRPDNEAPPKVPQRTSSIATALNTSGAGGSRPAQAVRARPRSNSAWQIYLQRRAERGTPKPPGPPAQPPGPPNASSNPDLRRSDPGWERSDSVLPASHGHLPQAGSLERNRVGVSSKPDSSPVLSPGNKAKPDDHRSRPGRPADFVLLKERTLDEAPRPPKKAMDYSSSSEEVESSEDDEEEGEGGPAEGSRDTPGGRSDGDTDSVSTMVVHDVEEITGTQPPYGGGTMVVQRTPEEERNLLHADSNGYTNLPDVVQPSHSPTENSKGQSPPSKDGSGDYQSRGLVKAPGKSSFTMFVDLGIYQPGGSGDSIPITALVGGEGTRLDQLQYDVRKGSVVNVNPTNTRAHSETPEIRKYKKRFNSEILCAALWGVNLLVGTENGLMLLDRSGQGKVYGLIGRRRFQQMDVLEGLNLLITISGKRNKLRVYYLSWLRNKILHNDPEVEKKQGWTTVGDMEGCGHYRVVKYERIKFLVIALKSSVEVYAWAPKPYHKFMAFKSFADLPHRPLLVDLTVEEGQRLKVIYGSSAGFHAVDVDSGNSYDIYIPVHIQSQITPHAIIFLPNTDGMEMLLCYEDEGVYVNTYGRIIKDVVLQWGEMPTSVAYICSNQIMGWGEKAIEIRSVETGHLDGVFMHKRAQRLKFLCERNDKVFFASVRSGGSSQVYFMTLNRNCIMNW
For experiment [6], the target named is T3, Protein kinase C zeta type (Homo sapiens, UniProt Q05513).
T3 sequence (Q05513 whole entry): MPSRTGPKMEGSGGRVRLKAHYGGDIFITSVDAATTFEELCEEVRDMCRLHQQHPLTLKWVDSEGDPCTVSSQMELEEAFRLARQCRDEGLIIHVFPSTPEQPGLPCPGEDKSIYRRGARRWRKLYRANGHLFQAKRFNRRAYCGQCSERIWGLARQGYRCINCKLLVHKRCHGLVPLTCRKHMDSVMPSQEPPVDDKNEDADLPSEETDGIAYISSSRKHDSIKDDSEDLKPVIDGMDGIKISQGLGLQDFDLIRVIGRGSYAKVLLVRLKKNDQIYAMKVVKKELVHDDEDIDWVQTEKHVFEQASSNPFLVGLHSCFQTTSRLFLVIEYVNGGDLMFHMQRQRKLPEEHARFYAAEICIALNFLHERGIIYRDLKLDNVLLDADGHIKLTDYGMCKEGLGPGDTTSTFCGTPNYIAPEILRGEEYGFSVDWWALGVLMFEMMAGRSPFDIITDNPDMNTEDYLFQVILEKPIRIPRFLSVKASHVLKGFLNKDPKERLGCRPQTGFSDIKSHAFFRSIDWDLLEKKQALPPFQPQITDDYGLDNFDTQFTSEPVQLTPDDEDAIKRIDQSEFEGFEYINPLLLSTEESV

Experiment [7] has as its target Choline-phosphate cytidylyltransferase A (Homo sapiens, UniProt P49585).
In experiment [8] the target is Serine/threonine-protein kinase 38-like (Homo sapiens, UniProt Q9Y2H1).
Serine/threonine-protein kinase 38-like, sequence (Q9Y2H1 whole entry): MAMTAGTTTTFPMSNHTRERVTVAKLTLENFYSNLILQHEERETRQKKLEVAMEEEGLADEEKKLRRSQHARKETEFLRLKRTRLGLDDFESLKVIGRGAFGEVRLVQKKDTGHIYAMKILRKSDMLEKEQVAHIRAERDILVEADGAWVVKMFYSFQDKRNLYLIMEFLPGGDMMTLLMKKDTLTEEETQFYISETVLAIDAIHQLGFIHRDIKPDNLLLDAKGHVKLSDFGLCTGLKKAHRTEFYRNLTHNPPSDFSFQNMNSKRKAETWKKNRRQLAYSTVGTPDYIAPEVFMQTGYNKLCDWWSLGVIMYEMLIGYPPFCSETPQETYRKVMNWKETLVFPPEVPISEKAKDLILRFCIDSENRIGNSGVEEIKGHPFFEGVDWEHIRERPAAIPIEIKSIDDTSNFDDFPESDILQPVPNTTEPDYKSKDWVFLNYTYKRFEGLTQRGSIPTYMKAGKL

Each structure is given as a SMILES string. Calls of active or inactive are those of the source. On the calls: in the data inactive means no Kd found up to 30 µM.

Serine/threonine-protein kinase PLK1, sequence (P53350 whole entry): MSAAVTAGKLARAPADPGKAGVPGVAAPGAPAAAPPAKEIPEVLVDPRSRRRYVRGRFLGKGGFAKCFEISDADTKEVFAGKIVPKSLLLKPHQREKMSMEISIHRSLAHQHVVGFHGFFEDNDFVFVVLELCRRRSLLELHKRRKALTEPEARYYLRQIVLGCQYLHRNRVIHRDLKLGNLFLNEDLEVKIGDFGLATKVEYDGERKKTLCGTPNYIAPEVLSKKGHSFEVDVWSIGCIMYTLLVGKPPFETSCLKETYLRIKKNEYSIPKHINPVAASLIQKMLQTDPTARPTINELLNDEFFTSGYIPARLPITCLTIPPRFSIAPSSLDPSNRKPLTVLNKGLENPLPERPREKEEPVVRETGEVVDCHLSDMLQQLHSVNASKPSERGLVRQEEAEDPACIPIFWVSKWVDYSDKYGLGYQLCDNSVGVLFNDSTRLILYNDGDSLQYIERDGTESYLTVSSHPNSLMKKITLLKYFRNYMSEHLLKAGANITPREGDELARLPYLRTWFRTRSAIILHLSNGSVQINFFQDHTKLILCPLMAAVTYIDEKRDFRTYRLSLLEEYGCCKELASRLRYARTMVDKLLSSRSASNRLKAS
Uncharacterized aarF domain-containing protein kinase 5, sequence (Q3MIX3 whole entry, the tested form may be a part): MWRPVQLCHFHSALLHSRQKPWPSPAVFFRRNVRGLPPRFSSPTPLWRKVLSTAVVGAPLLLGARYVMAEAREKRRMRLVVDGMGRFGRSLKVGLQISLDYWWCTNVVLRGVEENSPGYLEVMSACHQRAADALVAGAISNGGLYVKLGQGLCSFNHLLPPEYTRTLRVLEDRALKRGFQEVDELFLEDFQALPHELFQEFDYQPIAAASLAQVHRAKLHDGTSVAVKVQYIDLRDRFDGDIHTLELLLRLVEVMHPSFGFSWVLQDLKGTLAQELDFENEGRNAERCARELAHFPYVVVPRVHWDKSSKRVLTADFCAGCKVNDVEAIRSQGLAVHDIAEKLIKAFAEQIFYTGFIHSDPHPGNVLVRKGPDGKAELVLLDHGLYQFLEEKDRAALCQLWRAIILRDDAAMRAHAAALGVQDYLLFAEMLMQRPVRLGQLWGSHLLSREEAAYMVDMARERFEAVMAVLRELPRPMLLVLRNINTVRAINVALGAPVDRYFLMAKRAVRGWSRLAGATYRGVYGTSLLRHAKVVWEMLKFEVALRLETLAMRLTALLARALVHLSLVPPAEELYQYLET
Choline-phosphate cytidylyltransferase A, sequence (P49585 whole entry): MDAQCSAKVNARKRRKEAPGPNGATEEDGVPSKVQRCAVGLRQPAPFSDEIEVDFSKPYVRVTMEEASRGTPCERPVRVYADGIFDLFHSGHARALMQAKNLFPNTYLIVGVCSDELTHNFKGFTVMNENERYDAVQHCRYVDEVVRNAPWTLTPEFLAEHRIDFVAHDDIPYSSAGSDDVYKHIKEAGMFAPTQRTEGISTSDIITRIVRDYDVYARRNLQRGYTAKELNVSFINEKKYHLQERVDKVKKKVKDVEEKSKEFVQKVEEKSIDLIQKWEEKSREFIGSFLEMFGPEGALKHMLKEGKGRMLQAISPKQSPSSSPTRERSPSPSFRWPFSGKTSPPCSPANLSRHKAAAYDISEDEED
Dual specificity testis-specific protein kinase 2, sequence (Q96S53 whole entry, the tested form may be a part): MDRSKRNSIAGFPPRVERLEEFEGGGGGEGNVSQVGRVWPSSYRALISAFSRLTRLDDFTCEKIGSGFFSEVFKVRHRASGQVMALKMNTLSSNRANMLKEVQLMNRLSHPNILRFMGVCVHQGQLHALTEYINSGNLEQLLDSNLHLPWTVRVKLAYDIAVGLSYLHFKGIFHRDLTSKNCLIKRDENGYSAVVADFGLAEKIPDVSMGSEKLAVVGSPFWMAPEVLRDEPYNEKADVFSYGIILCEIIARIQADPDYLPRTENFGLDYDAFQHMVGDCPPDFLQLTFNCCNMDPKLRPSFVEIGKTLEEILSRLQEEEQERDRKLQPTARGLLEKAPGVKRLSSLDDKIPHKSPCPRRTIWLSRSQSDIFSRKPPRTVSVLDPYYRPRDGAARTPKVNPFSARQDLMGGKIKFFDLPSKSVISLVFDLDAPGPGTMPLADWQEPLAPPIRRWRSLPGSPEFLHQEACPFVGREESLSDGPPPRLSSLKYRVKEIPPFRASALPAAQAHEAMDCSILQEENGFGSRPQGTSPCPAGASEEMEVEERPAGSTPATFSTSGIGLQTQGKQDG

Consider `C=CC(=O)N1CCC[C@H](n2c(=O)n(-c3ccc(Oc4ccccc4)cc3)c3c(N)ncnc32)C1`, for which the Kd (in experiment [1]; on UMP-CMP kinase; in experiment [2]; in experiment [3]; in [4]) was > 30 µM (inactive) each time.

On to `Cc1csc(-c2nnc(Nc3ccc(Oc4ncccc4-c4ccnc(N)n4)cc3)c3ccccc23)c1` [AMG-900], for which the Kd on UMP-CMP kinase was > 30 µM (inactive); in experiment [2] it was 1.48 µM (active); in experiment [3] it was > 30 µM (inactive); in experiment [4] it was > 30 µM (inactive); in experiment [5], > 30 µM (inactive).

For the compound `COc1cc2ncnc(Oc3cccc(NC(=O)Nc4cc(C(C)(C)C(F)(F)F)on4)c3)c2cc1OC` [CEP-32496], the Kd (in experiment [1]; on UMP-CMP kinase; in experiment [2]; at Misshapen-like kinase 1; in experiment [6]; in experiment [3]) was > 30 µM (inactive) throughout.

Take `CC(C)(C)c1nc(-c2cccc(NS(=O)(=O)c3c(F)cccc3F)c2F)c(-c2ccnc(N)n2)s1` [DABRAFENIB]: the Kd (in experiment [1]; on UMP-CMP kinase; in experiment [7]; in experiment [2]; on Misshapen-like kinase 1; in experiment [6]) was > 30 µM (inactive) each time. Besides, the Kd in experiment [3], in experiment [4] and in experiment [5] was > 30 µM (inactive) throughout.

Take `NC1(c2ccc(-c3nc4ccn5c(=O)[nH]nc5c4cc3-c3ccccc3)cc2)CCC1` [MK-2206]: the Kd (on UMP-CMP kinase; in experiment [7]; on Misshapen-like kinase 1; in experiment [3]) was > 30 µM (inactive) in each case.

On to `COc1ncc(-c2ccc3nccc(-c4ccnnc4)c3c2)cc1NS(=O)(=O)c1ccc(F)cc1F` [OMIPALISIB], for which the Kd (in experiment [1]; on UMP-CMP kinase; in experiment [8]; at Misshapen-like kinase 1; in [6]; in experiment [5]) was > 30 µM (inactive) each time.

With `NC(=O)c1c(OCc2c(F)cc(Br)cc2F)nsc1NC(=O)NCCCCN1CCCC1` [OSI-632], the Kd in [8], in experiment [2] and in experiment [5] was > 30 µM (inactive) throughout.

On to `CCCCCCCCCCCCCCCCCCOP(=O)([O-])OC1CC[N+](C)(C)CC1` [PERIFOSINE], for which the Kd (on UMP-CMP kinase; in experiment [7]; in experiment [8]) was > 30 µM (inactive) each time.

On to `Cc1nc(Nc2n[nH]c3c2CN(C(=O)N[C@H](CN(C)C)c2ccccc2)C3(C)C)c2sccc2n1` [PF-03758309], for which the Kd (in experiment [1]; on UMP-CMP kinase; in experiment [8]; in experiment [2]; at Misshapen-like kinase 1; in [6]) was > 30 µM (inactive) in each case. Also, the Kd in [4] and in experiment [5] was > 30 µM (inactive) throughout.

Regarding `Cc1cnc(NC(=O)Nc2cc(Br)c(C)cc2OC[C@@H]2CNCCO2)cn1` [RABUSERTIB], the Kd in experiment [1], in [7], in experiment [2], in [6], in [3] and in experiment [4] was > 30 µM (inactive) in each case.

Consider `CNC(=O)c1cc(Oc2ccc(NC(=O)Nc3cc(C(C)(C)C)nn3-c3ccc4ncccc4c3)c(F)c2)ccn1` [REBASTINIB], for which the Kd (in experiment [1]; in [7]; in experiment [2]; at Misshapen-like kinase 1; in experiment [6]; in experiment [3]) was > 30 µM (inactive) in each case. Besides, the Kd is 0.002 µM in [4] and > 30 µM (inactive) in [5].

With `N#CC1(c2ccc(NC(=O)c3cccnc3NCc3ccncc3)cc2)CCCC1` [RIVOCERANIB], the Kd (on UMP-CMP kinase; in experiment [8]; in experiment [2]; in [6]; in experiment [4]; in [5]) was > 30 µM (inactive) throughout.

In the case of `O=c1[nH]ccc2cc(OC3CCNCC3)ccc12` [SAR-407899 FREE BASE], the Kd (in [1]; at UMP-CMP kinase; at Misshapen-like kinase 1; in experiment [6]; in [3]; in experiment [4]) was > 30 µM (inactive) throughout. Besides, the Kd in experiment [5] was > 30 µM (inactive).

Regarding `CO[C@H]1C[C@@H]2CC[C@@H](C)[C@@](O)(O2)C(=O)C(=O)N2CCCC[C@H]2C(=O)O[C@H]([C@H](C)C[C@@H]2CC[C@@H](O)[C@H](OC)C2)CC(=O)[C@H](C)/C=C(\C)[C@@H](O)[C@@H](OC)C(=O)[C@H](C)C[C@H](C)/C=C/C=C/C=C/1C` [SIROLIMUS], the Kd (in experiment [1]; on UMP-CMP kinase; in [7]; in [2]; at Misshapen-like kinase 1; in experiment [6]) was > 30 µM (inactive) throughout. The Kd in experiment [3], in experiment [4] and in experiment [5] was > 30 µM (inactive) each time.

For the compound `COc1cc2c(Nc3ccc(Cl)c(Cl)c3F)ncnc2cc1OC[C@@H]1C[C@@H]2CN(C)C[C@@H]2C1` [TESEVATINIB], the Kd (in experiment [7]; in [2]; on Misshapen-like kinase 1; in experiment [3]; in experiment [4]; in [5]) was > 30 µM (inactive) in each case.

Turning to `O=C1NC(=O)[C@@H](c2cn3c4c(cccc24)CCC3)[C@@H]1c1c[nH]c2ccccc12` [TIVANTINIB], the Kd (at UMP-CMP kinase; in [8]; in experiment [2]; in experiment [6]; in experiment [4]; in [5]) was > 30 µM (inactive) in each case.

With `Cc1cc(Nc2ncnc3ccc(NC4=NC(C)(C)CO4)cc23)ccc1Oc1ccn2ncnc2c1` [TUCATINIB], the Kd (on UMP-CMP kinase; in experiment [7]; on Misshapen-like kinase 1; in experiment [6]; in experiment [3]; in [4]) was > 30 µM (inactive) each time.

On to `C[C@@H](N)c1ccc(C(=O)Nc2ccnc3[nH]ccc23)cc1` [Y-39983], for which the Kd in experiment [1], in experiment [7] and in [8] was > 30 µM (inactive) throughout.
